How the values were obtained:
[1] = target: Serine/threonine-protein kinase N2 (Homo sapiens) (UniProt Q16513); assay: Inhibition of human recombinant PKN2 at 40 nM related to control ULK1
[2] = target: T1, Inhibitor of nuclear factor kappa-B kinase subunit alpha (Homo sapiens) (UniProt O15111); assay: Inhibition of human recombinant IKKa at 500 nM related to control ULK1
T1 sequence (whole entry): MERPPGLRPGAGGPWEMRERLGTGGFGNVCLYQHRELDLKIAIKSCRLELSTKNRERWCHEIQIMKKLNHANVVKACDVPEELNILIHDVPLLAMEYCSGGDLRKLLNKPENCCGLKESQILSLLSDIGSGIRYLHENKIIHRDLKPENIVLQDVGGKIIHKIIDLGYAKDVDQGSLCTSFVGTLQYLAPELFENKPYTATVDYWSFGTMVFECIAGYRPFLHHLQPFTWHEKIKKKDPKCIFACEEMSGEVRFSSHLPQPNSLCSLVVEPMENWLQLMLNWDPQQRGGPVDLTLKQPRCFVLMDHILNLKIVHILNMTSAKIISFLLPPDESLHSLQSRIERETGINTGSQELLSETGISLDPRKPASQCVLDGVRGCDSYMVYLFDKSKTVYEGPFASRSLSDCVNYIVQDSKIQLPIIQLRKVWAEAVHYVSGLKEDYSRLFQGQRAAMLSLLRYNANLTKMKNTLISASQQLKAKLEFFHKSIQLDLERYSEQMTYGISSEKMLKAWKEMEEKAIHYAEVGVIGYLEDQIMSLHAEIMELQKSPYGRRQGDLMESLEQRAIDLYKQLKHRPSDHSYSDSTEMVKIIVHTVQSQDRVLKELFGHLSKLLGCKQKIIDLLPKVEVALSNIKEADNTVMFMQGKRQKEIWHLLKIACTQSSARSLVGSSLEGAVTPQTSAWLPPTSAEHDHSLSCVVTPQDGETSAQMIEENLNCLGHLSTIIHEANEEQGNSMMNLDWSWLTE

[3] = target: T2, Dual specificity tyrosine-phosphorylation-regulated kinase 2 (Homo sapiens) (UniProt Q92630); assay: Inhibition of human recombinant DYRK2 at 500 nM related to control ULK1
T2 sequence (whole entry): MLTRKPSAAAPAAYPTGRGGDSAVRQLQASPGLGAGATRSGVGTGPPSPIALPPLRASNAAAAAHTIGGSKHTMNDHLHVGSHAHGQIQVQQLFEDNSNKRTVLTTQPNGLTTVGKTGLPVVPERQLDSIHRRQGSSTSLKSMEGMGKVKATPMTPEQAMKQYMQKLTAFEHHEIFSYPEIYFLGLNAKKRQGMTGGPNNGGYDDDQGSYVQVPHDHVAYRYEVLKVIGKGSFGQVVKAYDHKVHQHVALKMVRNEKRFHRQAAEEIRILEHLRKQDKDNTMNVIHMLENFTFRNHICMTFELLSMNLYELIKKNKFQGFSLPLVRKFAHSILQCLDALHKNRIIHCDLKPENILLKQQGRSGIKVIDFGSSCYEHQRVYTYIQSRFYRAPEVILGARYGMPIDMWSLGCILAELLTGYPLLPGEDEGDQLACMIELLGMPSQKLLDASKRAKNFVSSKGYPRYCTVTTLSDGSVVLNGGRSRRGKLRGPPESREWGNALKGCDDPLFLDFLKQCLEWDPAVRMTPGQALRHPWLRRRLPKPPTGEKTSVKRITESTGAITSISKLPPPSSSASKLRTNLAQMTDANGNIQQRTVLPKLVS

[4] = target: T3, Mitogen-activated protein kinase kinase kinase 5 (Homo sapiens) (UniProt Q99683); assay: Inhibition of human recombinant MAP3K5 at 15 nM related to control ULK1
T3 sequence (whole entry): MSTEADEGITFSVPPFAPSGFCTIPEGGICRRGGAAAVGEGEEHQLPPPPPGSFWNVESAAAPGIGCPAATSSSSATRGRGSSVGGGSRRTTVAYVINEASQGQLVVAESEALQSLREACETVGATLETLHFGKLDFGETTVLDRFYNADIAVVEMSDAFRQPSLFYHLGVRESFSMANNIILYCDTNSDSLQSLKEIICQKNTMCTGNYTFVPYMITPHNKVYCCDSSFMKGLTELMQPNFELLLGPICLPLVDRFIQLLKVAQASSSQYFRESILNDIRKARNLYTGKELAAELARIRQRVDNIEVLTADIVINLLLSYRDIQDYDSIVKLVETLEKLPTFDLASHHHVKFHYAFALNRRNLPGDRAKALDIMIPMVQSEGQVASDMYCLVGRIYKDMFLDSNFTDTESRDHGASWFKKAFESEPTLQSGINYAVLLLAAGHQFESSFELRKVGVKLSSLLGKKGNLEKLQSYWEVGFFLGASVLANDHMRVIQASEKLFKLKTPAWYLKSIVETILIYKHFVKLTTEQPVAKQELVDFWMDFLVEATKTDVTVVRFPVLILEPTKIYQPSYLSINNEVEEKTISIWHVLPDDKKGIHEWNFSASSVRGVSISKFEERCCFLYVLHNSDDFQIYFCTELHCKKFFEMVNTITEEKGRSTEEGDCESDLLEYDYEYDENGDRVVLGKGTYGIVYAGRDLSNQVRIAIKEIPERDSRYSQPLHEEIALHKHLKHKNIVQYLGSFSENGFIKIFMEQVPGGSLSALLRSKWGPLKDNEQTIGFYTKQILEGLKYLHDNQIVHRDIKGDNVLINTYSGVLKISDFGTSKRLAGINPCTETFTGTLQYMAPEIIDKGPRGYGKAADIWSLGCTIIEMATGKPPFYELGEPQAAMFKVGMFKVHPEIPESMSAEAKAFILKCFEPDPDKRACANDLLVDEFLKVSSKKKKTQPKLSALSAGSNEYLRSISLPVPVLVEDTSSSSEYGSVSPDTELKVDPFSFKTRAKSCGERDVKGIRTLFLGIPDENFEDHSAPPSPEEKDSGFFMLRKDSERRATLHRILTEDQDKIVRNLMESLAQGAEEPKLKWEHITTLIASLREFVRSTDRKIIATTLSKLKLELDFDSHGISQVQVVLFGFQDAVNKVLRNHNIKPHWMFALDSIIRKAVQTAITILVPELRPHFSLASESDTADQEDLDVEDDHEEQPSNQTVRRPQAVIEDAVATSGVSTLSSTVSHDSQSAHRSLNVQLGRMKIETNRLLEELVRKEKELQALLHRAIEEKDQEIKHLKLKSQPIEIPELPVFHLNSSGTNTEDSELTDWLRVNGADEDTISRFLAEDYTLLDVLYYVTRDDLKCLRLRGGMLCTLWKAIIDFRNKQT

Serine/threonine-protein kinase N2 (Homo sapiens), sequence (Q16513 whole entry, looked up): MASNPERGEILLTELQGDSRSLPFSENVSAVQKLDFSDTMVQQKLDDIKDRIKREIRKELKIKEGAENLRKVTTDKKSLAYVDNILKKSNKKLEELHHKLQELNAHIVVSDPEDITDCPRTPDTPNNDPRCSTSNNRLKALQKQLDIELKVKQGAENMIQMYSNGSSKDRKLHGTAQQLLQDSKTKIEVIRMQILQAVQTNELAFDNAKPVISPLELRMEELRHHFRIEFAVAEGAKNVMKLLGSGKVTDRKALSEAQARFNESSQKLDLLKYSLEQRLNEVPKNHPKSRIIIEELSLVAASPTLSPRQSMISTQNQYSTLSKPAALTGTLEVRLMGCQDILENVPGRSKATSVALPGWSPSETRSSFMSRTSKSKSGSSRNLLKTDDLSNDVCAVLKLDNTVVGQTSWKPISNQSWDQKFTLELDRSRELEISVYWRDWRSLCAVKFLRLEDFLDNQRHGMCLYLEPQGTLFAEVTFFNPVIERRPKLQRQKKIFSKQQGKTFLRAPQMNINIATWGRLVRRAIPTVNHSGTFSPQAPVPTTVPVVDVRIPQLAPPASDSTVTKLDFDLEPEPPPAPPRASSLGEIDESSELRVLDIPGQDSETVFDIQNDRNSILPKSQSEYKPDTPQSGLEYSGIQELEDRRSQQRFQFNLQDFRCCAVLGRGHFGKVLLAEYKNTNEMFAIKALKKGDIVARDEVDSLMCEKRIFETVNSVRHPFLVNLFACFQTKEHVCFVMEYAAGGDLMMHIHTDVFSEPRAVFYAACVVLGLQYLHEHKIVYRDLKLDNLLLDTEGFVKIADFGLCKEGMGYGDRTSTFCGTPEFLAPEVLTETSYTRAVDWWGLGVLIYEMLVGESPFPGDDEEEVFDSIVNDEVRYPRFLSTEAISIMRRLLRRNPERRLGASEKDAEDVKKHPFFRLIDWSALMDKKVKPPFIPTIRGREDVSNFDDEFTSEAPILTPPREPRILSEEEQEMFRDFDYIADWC

Compound: O=C(N[C@@H](C1CC1)C(F)(F)F)c1cc(-c2cnn3cc(-c4ccc(F)cc4)cnc23)cs1
- fold change (FC) [1]: 0

Compound: CNC(=O)c1ccccc1Oc1nc(Nc2cc(OC)c(OC)c(OC)c2)ncc1Br
- fold change (FC) [2]: 0.03
- fold change (FC) [3]: 0

Compound: CC(C)[C@H](NC(=O)c1cc(-c2cnn3cc(-c4ccc(OCCN5CCCCC5)cc4)cnc23)cs1)C(F)(F)F
- fold change (FC) [4]: 0

Reference: ChEMBL document CHEMBL5653631, “A Potent and Selective ULK1 Inhibitor Suppresses Autophagy and Sensitizes Cancer Cells to Nutrient Stress” (iScience, 2018)
